Like-named read-outs stand apart in the source and are kept apart here.
Columns and labels:
[1] = tested on: wild-type HIV-1; settings: read-out: IC50 (50% inhibitory concentration), MT-4 cells, cited from earlier work
[2] = tested on: AZT-resistant strain derived from wild-type HIV-1; settings: read-out: IC50 (50% inhibitory concentration); second passage of the AZT-resistant progeny, MT-4 cells; cited from earlier work
[3] = molecular target: HIV-1 protease, wild type, expressed as part of truncated HIV-1 polyprotein (Human immunodeficiency virus type 1 group M subtype B, UniProt P04585); type: cell-based
From the text: Plasmid pART-2 was digested with Bgl II and Eco RI to obtain a nucleotide sequence coding for a portion of the HIV-1 polyprotein (i.e., the HIV-1 protease protein, the HIV-1 reverse transcriptase protein and a portion of the HIV-1 integrase protein). The isolated 2.3 kb fragment was then inserted into the pTrcHisC plasmid (obtained from Invitrogen, San Diego, Calif.), which had previously been digested with the same restriction enzymes, to yield the plasmid pL124.23. The pL124.23 plasmid contains upstream sequences coding for a series of six histidine residues fused to a gene 10 segment, all of which are in frame with the inserted fragment. An enterokinase cleavage recognition site is also located between gene 10 and the truncated polyprotein. The inserted sequences, as well as the described upstream sequences are all under control of a T7 promoter. The T7 polymerase in the host cell (Top 10, Invitrogen) is inducible with IPTG.

Row | Compound | IC50 ([1]; fourth passage of the wild-type progeny) | IC50 ([1]; passage 6 virus, tested at higher compound concentrations) | IC50 [2] | processing of the polyprotein by HIV protease [3]
1 | Nc1nc(=O)n([C@@H]2CS[C@H](CO)O2)cc1F [FTC] | > 50 µM | > 250 µM | > 50 µM | 
2 | CC(C)(C)NC(=O)[C@@H]1CN(Cc2cccnc2)CCN1C[C@@H](O)C[C@@H](Cc1ccccc1)C(=O)N[C@H]1c2ccccc2C[C@H]1O [L-735,524] |  |  |  | did not allow processing of the polyprotein

Source: patent US6063562A (priority 1995, dated 2000)
